Results taken from patent US20260217652A1, “PHENYL-SUBSTITUTED HETEROARYL COMPOUND AND PHARMACEUTICAL COMPOSITION COMPRISING SAME, PREPARATION METHOD THEREFOR AND USE THEREOF” (SHANGHAI MEIYUE BIOTECH DEVELOPMENT CO., LTD., priority 2023, published 2026).
pIC50: −log10 of the molar value. Like-named read-outs stand apart in the source and are kept apart here.

Tests used:
[1] = biological target: T1, p38 MAPK/MK2 (Homo sapiens, UniProt Q16539); assay: In vitro activity assay of p38 MAPK/MK2 (Z-LYTE kinase assay kit); assay type: biochemical; conditions: active p38α, inactive MK2, Ser/Thr 4; 1-hour reaction at 20° C.
T1 construct: purchased Carna (p38α); Abcam (MK2) 04-152; 79910
Description: (§1) The inhibitory effect of the compound on p38 MAPK/MK2 was evaluated using the Z-LYTE kinase assay kit (Thermo, PV3177). The test compound was dissolved in DMSO to obtain a 10 mM stock solution and stored at −20° C. for future use. The initial concentration of the compound was […], with 1% DMSO, 5-fold serial dilution, 8 concentrations, and duplicate wells. […] After a 1-hour reaction at 20° C., Development Reagent A diluted 2048-fold was added to each well, followed by incubation at room temperature for 1 hour. The reaction was terminated by adding 5 μL of stop buffer, and the plate was read using a microplate reader (Ex. 400 nm, Em. 445 nm; Ex. 400 nm, Em. 520 nm). The concentration-effect curve was fitted using GraphPad Prism 8 software, and the compound concentration resulting in 50% inhibition, IC50, was calculated.

[2] = In vitro liver microsome stability, rat; assay type: in vitro ADME; conditions: liver microsomes, 0.5 mg/mL microsomes, 1 μM compound, NADPH, 37° C., read-out: Rat liver microsomes Half-life T1/2
Description: (§2) The reference compound used in this experiment was Ketanserin, and the final concentration of microsomes in the experimental system was 0.5 mg/mL. The PBS buffer was a 50 mM K2HPO4 buffer. The concentration of the test compound was 1 μM. The microsomes were added to PBS, and the control/test compounds were respectively added to the corresponding reaction systems, mixed thoroughly, and pre-incubated in a 37° C. water bath for 5 minutes. The reaction was initiated by adding 20 mM NADPH solution under 37° C. water bath conditions (for the No NADPH samples, an equal volume of PBS solution was used as a substitute for the 20 mM NADPH solution). At the reaction time points of 0 min, 10 min, 30 mun, 60 min, and 90 min, 30 μL of reaction samples were taken from each reaction system (for the No NADPH samples, sampling was performed at 0 min and 90 min), and the reaction was immediately terminated by adding 300 μL of the internal standard acetonitrile solution. After centrifugation at 4000 rpm, the supernatant was taken and mixed thoroughly with an equal volume of pure water. The samples at each time point were analyzed by LC-MS/MS (AB Triple Quard 5500) to determine the compound content, and the T1/2 was calculated.

[3] = tested on: TNF-α in human PBMC cells; assay: In vitro TNF-α activity assay in human PBMC cell supernatant (LPS, ELISA); assay type: cell-based; conditions: Homo sapiens, PBMC, 24 h, LPS 100 ng/mL, read-out: p38 MAPK/TNF-α IC50
Description: The inhibitory effect of the compound on TNF-α in the supernatant of human PBMC cells was evaluated using an ELISA detection kit (Beyotime, PI518). The test compound was dissolved in DMSO to obtain a 10 mM stock solution and stored at −20° C. for future use. The initial concentration of the compound was […], followed by 5-fold serial dilution to obtain 6 concentrations. Cells were plated in duplicate, and ELISA was performed in single wells. The final concentration of DMSO was 0.4%. Alternatively, the initial concentration of the compound, dilution factor, number of concentration gradients, and replicates could be adjusted based on the specific screening conditions.
Fresh human peripheral blood mononuclear cells (PBMCs) (Sailybio) were seeded at a density of 2×10^5 cells per well in a 96-well plate (Corning, 3599), with each well containing 100 μL of RPMI-1640 (Gibco #A1049101)+10% FBS (Gibco, 10099141C), and incubated overnight at 37° C. under 5% CO2. Test compounds were added to the 96-well culture plate at a volume of 25 μL per well. After 1 hour, 5 μL of LPS was added to achieve a final concentration of 100 ng/mL. No LPS and compound were added to the negative control wells, and no compound was added to the positive control wells. The mixture was further incubated for 24 hours at 37° C. under 5% CO2. Subsequently, the cell culture supernatant was collected by centrifugation at 500 rcf for 8 minutes. The concentration of TNF-α was measured according to the operation manual of the ELISA kit. The concentration-effect curve was fitted using GraphPad Prism 8 software, and the compound concentration resulting in 50% inhibition, IC50, was calculated.

[4] = biological target: T2, p38 MAPK/ATF2 (Homo sapiens, UniProt Q16539); assay: In vitro activity assay of p38 MAPK/ATF2 (HTRF); assay type: biochemical; conditions: p38α, Human ATF2 Protein, ATP; 35 min at 20° C.
T2 construct: purchased Carna Biosciences (p38α); Sino Biological (ATF2) 04-152; 11599-H20B
Description: The inhibitory effect of the compound on p38a-catalyzed ATF2 was evaluated by the HTRF method. The test compound was dissolved in DMSO to obtain a 10 mM stock solution and stored at −20° C. for future use. The initial concentration of the compound was 10 μM, with 0.25% DMSO, 5-fold serial dilution, 8 concentrations, and duplicate wells. The reaction buffer, consisting of 40 mM Tris pH 7.5, 20 mM MgCl2, 0.1 mg/mL BSA, and 50 μM DTT, was used to prepare 3.5×p38α (MAPK14, Carna Biosciences, 04-152) protein working solution, 3.5×Human ATF2 Protein (Sino Biological, 11599-H20B) working solution, and 3.5×ATP working solution. The reaction was terminated with 10 mM EDTA. The final 14 μL reaction system was performed in a 96-well plate (cisbio, 66PL96025), containing 0.29 ng/μL p38a, […] Human ATF2 Protein, and 25 µM ATP. After reacting at 20° C. for 35 min, the pre-prepared antibody solution (cibio, 63ADK015PEG, Phospho-ATF2 Eu Cryptate antibody, Phospho-ATF2 d2 antibody, diluted 40-fold with Detection buffer) was added to each well and incubated overnight at room temperature. The samples were then measured using a microplate reader (HTRF compatible reader). The concentration-effect curve was fitted using GraphPad Prism 8 software, and the compound concentration resulting in 50% inhibition, IC50, was calculated.

[5] = In vitro liver microsome stability, mouse; assay type: in vitro ADME; conditions: liver microsomes, 0.5 mg/mL microsomes, 1 μM compound, NADPH, 37° C., read-out: Mouse liver microsomes Half-life T1/2
Description: as §2

[6] = biological target: T3, p38 MAPK/MK5 (Homo sapiens, UniProt Q16539); assay: In vitro activity assay of p38 MAPK/MK5 (Z-LYTE kinase assay kit); assay type: biochemical; conditions: active p38α, inactive MK5, Ser/Thr 4; 4-hour reaction at 20° C.
T3 construct: purchased Carna (p38α); Abcam (MK5) 04-152; 217826
Description: as §1, with “MAPK/MK5” for “MAPK/MK2”, “4-hour” for “1-hour”, “µL” for “μL”

[7] = In vitro liver microsome stability, human; assay type: in vitro ADME; conditions: liver microsomes, 0.5 mg/mL microsomes, 1 μM compound, NADPH, 37° C., read-out: Human liver microsomes Half-life T1/2
Description: as §2

[8] = Pharmacokinetic evaluation in mice; assay type: in vivo; conditions: mouse, plasma; for AUC(0-t): read-out: Area under curve AUC0-24 h; for clearance: read-out: Clearance CL (converted); for half-life: read-out: Half-life T1/2 (converted); for C0: read-out: Initial concentration C0; for Vd: read-out: Volume of distribution Vd; for bioavailability: read-out: Bioavailability F %; for Cmax: read-out: Maximum concentration Cmax
Description: The compound was weighed and dissolved in a mixed solvent of DMAC: Solutol: PBS (1:1:8. After intravenous/gastric administration to mice, whole blood ([…]) was collected at 0.083, 0.25, 0.5, 1, 2, 4, 7, and 24 hours. The samples were anticoagulated with EDTA-K2, immediately centrifuged at 4000 rpm for 5 minutes at 4° C., and the supernatant was frozen in a −80° C. refrigerator. Plasma sample processing: The samples were precipitated with an internal standard-containing CH3CN precipitant, followed by centrifugation at 12700 rpm for 10 min. The supernatant was collected and analyzed by LC-MS/MS (AB Triple Quard 5500) to obtain the plasma drug concentration. The parameters were calculated using a non-compartmental model in Winnolin version 8.1.

[9] = intravenous injection group 1 mg/kg
[10] = po, intragastric administration group 5 mg/kg

T3 sequence (Q16539 whole entry): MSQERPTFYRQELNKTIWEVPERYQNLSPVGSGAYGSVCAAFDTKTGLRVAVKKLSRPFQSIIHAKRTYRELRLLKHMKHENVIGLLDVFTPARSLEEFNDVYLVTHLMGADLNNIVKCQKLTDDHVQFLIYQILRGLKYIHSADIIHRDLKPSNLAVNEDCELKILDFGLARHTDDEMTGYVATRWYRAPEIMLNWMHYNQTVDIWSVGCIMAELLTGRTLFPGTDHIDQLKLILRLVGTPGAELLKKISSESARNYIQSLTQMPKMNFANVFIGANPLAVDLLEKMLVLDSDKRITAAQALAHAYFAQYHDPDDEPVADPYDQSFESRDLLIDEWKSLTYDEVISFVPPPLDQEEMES
T1 sequence (Q16539 whole entry): as above
T1 sequence (P49137 whole entry partner): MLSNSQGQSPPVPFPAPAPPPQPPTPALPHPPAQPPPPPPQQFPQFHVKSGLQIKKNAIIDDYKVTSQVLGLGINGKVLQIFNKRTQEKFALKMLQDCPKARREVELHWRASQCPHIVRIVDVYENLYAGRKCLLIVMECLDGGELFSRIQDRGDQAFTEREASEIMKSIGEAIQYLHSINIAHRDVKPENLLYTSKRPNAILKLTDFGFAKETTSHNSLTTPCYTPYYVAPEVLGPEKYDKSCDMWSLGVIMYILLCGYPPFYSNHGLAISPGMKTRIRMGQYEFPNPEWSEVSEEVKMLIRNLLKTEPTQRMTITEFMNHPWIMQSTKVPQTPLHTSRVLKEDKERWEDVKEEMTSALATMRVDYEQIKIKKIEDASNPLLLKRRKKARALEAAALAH

Cc1cnc(-c2ccc(F)c([C@@](C)(O)CO)c2F)cc1-n1c(C)cc(OCc2ncc(F)cc2F)c(Cl)c1=O (single isomer, unassigned) [Compound 65-P4]
pIC50 [1]: 9.23 | half-life at 1 μM [2]: > 4.66 h | pIC50 [3]: 8.35 | pIC50 [4]: 5.34 | half-life at 1 μM [5]: > 4.66 h | pIC50 [6]: < 4.70 | half-life at 1 μM [7]: > 4.66 h

Cc1cnc(-c2cccc(C(=O)O)c2)cc1-n1c(C)cc(OCc2ncc(F)cc2F)c(Cl)c1=O [Compound 1]
pIC50 [1]: 7.23 | half-life at 1 μM [2]: > 4.66 h | pIC50 [4]: < 4.70 | half-life at 1 μM [5]: > 4.66 h | pIC50 [6]: 5.22 | half-life at 1 μM [7]: > 4.66 h

CNC(=O)c1cccc(-c2cc(-n3c(C)cc(OCc4ncc(F)cc4F)c(Cl)c3=O)c(C)cn2)c1 [Compound 2]
pIC50 [1]: 7.20 | half-life at 1 μM [2]: 4.17 h | pIC50 [3]: 7.05 | pIC50 [4]: 4.99 | half-life at 1 μM [5]: 3.96 h | pIC50 [6]: 5.52 | half-life at 1 μM [7]: 4.14 h

Cc1cnc(-c2cccc(C(N)=O)c2)cc1-n1c(C)cc(OCc2ncc(F)cc2F)c(Cl)c1=O [Compound 4]
pIC50 [1]: 7.30 | half-life at 1 μM [2]: > 4.66 h | pIC50 [3]: 7.01 | pIC50 [4]: < 4.70 | half-life at 1 μM [5]: 2.93 h | pIC50 [6]: 5.18 | half-life at 1 μM [7]: > 4.66 h

Cc1cnc(-c2cccc([C@@](C)(O)CO)c2F)cc1-n1c(C)cc(OCc2ncc(F)cc2F)c(Cl)c1=O [Compound 35-P1]
pIC50 [1]: 8.84 | half-life at 1 μM [2]: > 4.66 h | pIC50 [3]: 8.72 | half-life at 1 μM [5]: > 4.66 h | pIC50 [6]: 5.33 | half-life at 1 μM [7]: > 4.66 h

Cc1cnc(-c2cccc(C(=O)O)c2)c(F)c1-n1c(C)cc(OCc2ncc(F)cc2F)c(Cl)c1=O [Compound 29-P1]
pIC50 [1]: 8.31 | half-life at 1 μM [2]: > 4.66 h | pIC50 [4]: 5.94 | half-life at 1 μM [5]: > 4.66 h | AUC(0-t) [8, 9]: 1390 ng·h/mL | clearance [8, 9]: 10.4 mL/min/kg | half-life [8, 9]: 2.57 h | C0 [8, 9]: 1450 ng/mL | Vd [8, 9]: 1.83 L/kg | AUC(0-t) [8, 10]: 6490 ng·h/mL | bioavailability [8, 10]: 80.6% | half-life [8, 10]: 3.37 h | Cmax [8, 10]: 1380 ng/mL | half-life at 1 μM [7]: > 4.66 h

Cc1cnc(-c2cccc(C(=O)N(C)C)c2)c(F)c1-n1c(C)cc(OCc2ncc(F)cc2F)c(Cl)c1=O (single isomer, unassigned) [Compound 32-P1]
pIC50 [1]: 9.29 | pIC50 [3]: 8.49 | pIC50 [4]: 5.44 | pIC50 [6]: 5.78 | AUC(0-t) [8, 9]: 842 ng·h/mL | clearance [8, 9]: 21.1 mL/min/kg | half-life [8, 9]: 0.35 h | C0 [8, 9]: 1790 ng/mL | Vd [8, 9]: 0.49 L/kg | AUC(0-t) [8, 10]: 2350 ng·h/mL | bioavailability [8, 10]: 57.9% | half-life [8, 10]: 1.54 h | Cmax [8, 10]: 1610 ng/mL
